# Measured values taken from patent US20220257702A1, “STABLE ALBUVIRTIDE COMPOSITIONS” (priority 2019, published 2022).
# What was measured:
# HIV-1 = conditions: background statement; cited from earlier work
# [1] = cited from earlier work
# [2] = Stability of lyophilized albuvirtide compositions upon storage at 25° C. (HPLC); type: physicochemical; conditions: in words
# Protocol: (§1) The liquid compositions having albuvirtide and PB were then lyophilized and their stability were tested. Part of the organic solvent could be removed using reduced-pressure evaporation. Stability of Albuvirtide-PB upon lyophilization, upon storage at 25° C., 6° C. and −20° C. were tested using HPLC. The lyophilized powder of Albuvirtide-PB were kept at 25° C., 6° C. and −20° C. for certain periods of time while their purities were monitored during such periods by HPLC.
# [3] = Stability of lyophilized Albuvirtide-PB upon storage at 6° C. (HPLC); type: physicochemical; conditions: in words
# Protocol: as §1
# [4] = Stability of lyophilized Albuvirtide-PB upon storage at −20° C. (HPLC); type: physicochemical; conditions: in words, Table 6
# Protocol: as §1
substance,measurement,setting,value
albuvirtide,concentration at which viral entry is inhibited,HIV-1,low nanomolar concentration
same,in vitro activity against HIV-1,HIV-1,in vitro activity against various HIV-1 strains and certain variants that are resistant to enfuvirtide (Fuzeon)
same,in vivo half-life,[1],long half-life
same,purity of albuvirtide during storage for 5 days at 25° C.,[2]; Table 9,barely changed
same,purity of albuvirtide during storage for 1 month at 25° C.,[2]; Table 11,barely changed
same,change in purity of albuvirtide during storage for 1 month at 6° C.,[3]; Table 5,equivalent to that during storage at 25 °C for 5 days
same,purity of albuvirtide during storage for 2 months at 6° C.,[3]; Table 10,barely changed
same,purity of albuvirtide during storage for 3 month at −20° C.,[4],barely changed
